According to ChEMBL document CHEMBL5725304, “3,4-dihydro-2H-isoquinoline-1-one and 2,3-dihydro-isoindol-1-one compounds” (2017):
“And” between values parts separate entries of the source, which are not always exact repeats. Equal entries are not always repeated.

What was measured:
[1] = target: T1, Cytochrome P450 11B1, mitochondrial (Homo sapiens, UniProt P15538); assay: (§1) Cellular Enzyme Assay: G-402 cells expressing CYP11 constructs were established as described above and maintained in McCoy's 5a Medium Modified, ATCC Catalog No. 30-2007 containing 10% FCS and 400 ug/ml G418 (Geneticin) at 37° C. under an atmosphere of 5% CO2/95% air. Cellular enzyme assays were performed in DMEM/F12 medium containing 2.5% charcoal treated FCS and appropriate concentration of substrate (0.3-10 uM 11-Deoxycorticosterone, 11-Deoxycortisol or Corticosterone). For assaying enzymatic activity, cells were plated onto 96 well plates and incubated for 16 h. An aliquot of the supernatant is then transferred and analyzed for the concentration of the expected product (Aldosterone for CYP11B2; Cortisol for CYP11B1). The concentrations of these steroids can be determined using HTRF assays from CisBio analyzing either Aldosterone or Cortisol.
T1 sequence (P15538 whole entry): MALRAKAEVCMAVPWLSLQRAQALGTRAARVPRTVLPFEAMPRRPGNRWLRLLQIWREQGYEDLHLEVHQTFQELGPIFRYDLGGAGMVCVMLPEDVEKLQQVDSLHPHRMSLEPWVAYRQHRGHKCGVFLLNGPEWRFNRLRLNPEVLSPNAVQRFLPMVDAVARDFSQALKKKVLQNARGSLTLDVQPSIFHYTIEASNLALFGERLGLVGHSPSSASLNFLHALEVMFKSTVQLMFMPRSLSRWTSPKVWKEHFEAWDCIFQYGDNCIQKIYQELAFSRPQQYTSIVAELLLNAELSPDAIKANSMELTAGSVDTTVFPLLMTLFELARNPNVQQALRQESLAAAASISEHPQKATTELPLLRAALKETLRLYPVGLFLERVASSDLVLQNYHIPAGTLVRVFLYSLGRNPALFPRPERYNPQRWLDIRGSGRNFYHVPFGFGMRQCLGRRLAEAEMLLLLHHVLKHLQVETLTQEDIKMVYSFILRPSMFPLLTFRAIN

[2] = target: T2, Cytochrome P450 11B2, mitochondrial (Homo sapiens, UniProt P19099); assay: as §1
T2 sequence (P19099 whole entry): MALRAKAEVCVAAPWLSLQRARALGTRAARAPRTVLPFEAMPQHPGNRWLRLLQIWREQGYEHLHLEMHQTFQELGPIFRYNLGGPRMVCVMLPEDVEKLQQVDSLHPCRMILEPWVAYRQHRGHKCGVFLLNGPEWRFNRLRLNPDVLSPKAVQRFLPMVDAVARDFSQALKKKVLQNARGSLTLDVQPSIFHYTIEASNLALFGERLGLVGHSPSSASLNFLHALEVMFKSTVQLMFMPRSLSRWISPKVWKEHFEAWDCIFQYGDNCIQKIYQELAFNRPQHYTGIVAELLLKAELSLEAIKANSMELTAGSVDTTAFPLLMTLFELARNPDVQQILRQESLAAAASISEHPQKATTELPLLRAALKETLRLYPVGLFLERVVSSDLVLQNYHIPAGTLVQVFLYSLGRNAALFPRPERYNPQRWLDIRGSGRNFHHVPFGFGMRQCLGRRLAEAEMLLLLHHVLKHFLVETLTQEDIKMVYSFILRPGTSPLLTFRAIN

For `CCS(=O)(=O)N1CCC(N(C)c2cncc(N3C(=O)c4ccc(Cl)cc4C3(C)C)c2)C1` (single isomer, unassigned), the EC50 [1] was 0.188 µM and 0.124 µM and the EC50 [2] was 0.001 µM and 0.0006 µM.
